Data taken from US4879220A (priority 1986, dated 1989).

Assays:
[1] = tested on: human foreskin fibroblasts; assay: Morphology and attachment of cultured fibroblasts on exposure to probe or ligand; assay type: cell-based
Protocol: Human foreskin fibroblasts were cultured to subconfluency on glass discs placed in culture dishes using Dulbecco's modified Eagle's medium (Gibco Laboratories, Grand Island, NY, U.S.A.). For labeling with glucose-GAP, glass discs with attached fibroblasts were removed from the culture dishes and washed twice with HBS. The cells were then exposed to fresh HBS (experimental) or HBS containing 400 mM glucose or 0.4 uM cytochalasin B (controls) for 5 min at room temperature. […] Cytochem. […] The discs were then placed in a drop of HBS and irradiated on ice as described above for erythrocytes. For labeling with ouabain-GAP cells grown in culture dishes were washed twice with HBS and exposed to HBS containing 400 mM glucose (experimental) or HBS containing 400 mM glucose plus 2 mM ouabain (control) for 15 min at 37° C. An equal volume of ouabain-GAP was then added followed by incubation for 30 min in the dark at room temperature. At this point, the presence of ouabain or ouabain-GAP caused the cells to detach from the substrate. The cells were recovered and unbound probe was removed by centrifugation in HBS. Cells were resuspended in fresh HBS and irradiated for 15 min in a water-jacketed cell at 4° C. using the light source described above.

ATPase = settings: ouabain-ATPase complex; Erdmann and Hasse; read-out: dissociation constant; cited from earlier work
glucose transporter = molecular target: T1, glucose transporter (Homo sapiens, UniProt P11166); settings: glucose-glucose transporter complex; Sogin and Hinkle; read-out: dissociation constant; cited from earlier work
T1 construct: intact human erythrocytes labeled with the glucose transporter-specific probe (glucose-GAP); endogenous in cells; host or cells: human erythrocytes
T1 sequence (P11166 1-492): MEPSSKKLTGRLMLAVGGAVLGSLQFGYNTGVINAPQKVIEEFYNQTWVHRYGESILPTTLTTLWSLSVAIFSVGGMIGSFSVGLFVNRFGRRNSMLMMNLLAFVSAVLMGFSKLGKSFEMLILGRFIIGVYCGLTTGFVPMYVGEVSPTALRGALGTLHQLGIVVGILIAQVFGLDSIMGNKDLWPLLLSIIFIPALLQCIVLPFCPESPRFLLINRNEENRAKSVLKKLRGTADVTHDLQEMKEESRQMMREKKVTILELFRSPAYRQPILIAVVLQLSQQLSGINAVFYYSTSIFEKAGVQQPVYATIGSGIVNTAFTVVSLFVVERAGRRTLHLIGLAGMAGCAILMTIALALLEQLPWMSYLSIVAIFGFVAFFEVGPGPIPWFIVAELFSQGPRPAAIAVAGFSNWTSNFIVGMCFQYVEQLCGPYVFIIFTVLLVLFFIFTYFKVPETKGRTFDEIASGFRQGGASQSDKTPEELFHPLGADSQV

| Compound | morphological response of fibroblasts [1] | Kd (ATPase) | Kd (glucose transporter) |
| --- | --- | --- | --- |
| C[C@@H]1O[C@@H](O[C@H]2C[C@@H](O)[C@]3(CO)[C@H]4[C@H](O)C[C@]5(C)[C@@H](C6=CC(=O)OC6)CC[C@]5(O)[C@@H]4CC[C@]3(O)C2)[C@H](O)[C@H](O)[C@H]1O [ouabain] | caused the cells to lift from the substrate and take on a rounded morphology | 2.8 nM | – |
| OC[C@H]1OC(O)[C@H](O)[C@@H](O)[C@@H]1O (stereo partly drawn) [glucose] | – | – | 50 mM |
